Laboratory results taken from ChEMBL document CHEMBL5696442, “Discovery of type II inhibitors of TGFβ-activated kinase 1 (TAK1) and mitogen-activated protein kinase kinase kinase kinase 2 (MAP4K2)” (J Med Chem, 2015).
Active and inactive are the calls of the source. The rule behind the calls is not given here.

Experiments:
[1] = Inhibition of KHS1 Lys1 labeling site in human A-375 cells at 5 uM by KiNativ Profiling analysis relative to control; conditions: condition cancer
[2] = molecular target: Mitogen-activated protein kinase kinase kinase 20 (Homo sapiens, UniProt Q9NYL2); assay: Inhibition of ZAK K1 labeling site in human Huh-7 cells at 10 uM by KiNativ Profiling analysis relative to control; assay type: cell-based
Mitogen-activated protein kinase kinase kinase 20, sequence (Q9NYL2 2-800 limits assumed): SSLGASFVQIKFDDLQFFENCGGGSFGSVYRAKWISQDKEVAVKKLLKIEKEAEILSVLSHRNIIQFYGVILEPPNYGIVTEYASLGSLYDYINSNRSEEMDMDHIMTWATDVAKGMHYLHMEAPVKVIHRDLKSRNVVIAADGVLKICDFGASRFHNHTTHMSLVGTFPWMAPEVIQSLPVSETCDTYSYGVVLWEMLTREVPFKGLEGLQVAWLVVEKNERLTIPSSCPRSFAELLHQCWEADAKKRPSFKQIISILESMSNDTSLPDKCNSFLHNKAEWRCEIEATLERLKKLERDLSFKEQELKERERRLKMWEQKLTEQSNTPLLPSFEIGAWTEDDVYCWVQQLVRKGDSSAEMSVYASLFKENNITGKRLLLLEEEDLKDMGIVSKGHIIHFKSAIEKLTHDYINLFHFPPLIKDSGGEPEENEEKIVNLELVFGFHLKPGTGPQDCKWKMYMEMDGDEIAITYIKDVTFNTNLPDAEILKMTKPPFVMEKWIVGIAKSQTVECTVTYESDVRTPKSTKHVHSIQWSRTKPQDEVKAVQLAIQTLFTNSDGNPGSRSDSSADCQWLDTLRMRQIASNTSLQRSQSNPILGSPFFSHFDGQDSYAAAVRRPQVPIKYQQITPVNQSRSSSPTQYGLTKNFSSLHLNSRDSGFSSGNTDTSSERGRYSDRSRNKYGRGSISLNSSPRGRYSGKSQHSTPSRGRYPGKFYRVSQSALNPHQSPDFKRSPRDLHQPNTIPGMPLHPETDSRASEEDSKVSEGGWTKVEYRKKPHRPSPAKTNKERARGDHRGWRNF

[3] = molecular target: Serine/threonine-protein kinase PAK 2 (Homo sapiens) (UniProt Q13177); assay: Inhibition of PAK2 (unknown origin) at 10 uM by Ambit Kinomescan binding assay
Serine/threonine-protein kinase PAK 2 (Homo sapiens), sequence (Q13177 whole entry): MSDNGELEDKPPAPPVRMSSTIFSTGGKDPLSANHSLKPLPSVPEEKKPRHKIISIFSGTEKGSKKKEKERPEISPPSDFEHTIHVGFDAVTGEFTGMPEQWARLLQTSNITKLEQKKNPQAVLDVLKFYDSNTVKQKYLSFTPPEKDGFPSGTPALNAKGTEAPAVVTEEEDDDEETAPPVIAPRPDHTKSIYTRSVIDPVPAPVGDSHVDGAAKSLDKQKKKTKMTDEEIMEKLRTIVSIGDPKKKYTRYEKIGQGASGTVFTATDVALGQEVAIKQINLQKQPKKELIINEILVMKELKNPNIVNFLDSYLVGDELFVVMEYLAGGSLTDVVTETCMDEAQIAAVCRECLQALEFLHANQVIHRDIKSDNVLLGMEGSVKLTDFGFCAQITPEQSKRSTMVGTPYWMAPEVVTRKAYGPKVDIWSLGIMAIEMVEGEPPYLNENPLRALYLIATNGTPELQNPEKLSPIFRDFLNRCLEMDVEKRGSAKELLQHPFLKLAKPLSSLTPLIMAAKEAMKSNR

[4] = molecular target: Serine/threonine-protein kinase ULK2 (Homo sapiens) (UniProt Q8IYT8); assay: Inhibition of ULK2 (unknown origin) at 10 uM by Ambit Kinomescan binding assay
Serine/threonine-protein kinase ULK2 (Homo sapiens), sequence (Q8IYT8 whole entry): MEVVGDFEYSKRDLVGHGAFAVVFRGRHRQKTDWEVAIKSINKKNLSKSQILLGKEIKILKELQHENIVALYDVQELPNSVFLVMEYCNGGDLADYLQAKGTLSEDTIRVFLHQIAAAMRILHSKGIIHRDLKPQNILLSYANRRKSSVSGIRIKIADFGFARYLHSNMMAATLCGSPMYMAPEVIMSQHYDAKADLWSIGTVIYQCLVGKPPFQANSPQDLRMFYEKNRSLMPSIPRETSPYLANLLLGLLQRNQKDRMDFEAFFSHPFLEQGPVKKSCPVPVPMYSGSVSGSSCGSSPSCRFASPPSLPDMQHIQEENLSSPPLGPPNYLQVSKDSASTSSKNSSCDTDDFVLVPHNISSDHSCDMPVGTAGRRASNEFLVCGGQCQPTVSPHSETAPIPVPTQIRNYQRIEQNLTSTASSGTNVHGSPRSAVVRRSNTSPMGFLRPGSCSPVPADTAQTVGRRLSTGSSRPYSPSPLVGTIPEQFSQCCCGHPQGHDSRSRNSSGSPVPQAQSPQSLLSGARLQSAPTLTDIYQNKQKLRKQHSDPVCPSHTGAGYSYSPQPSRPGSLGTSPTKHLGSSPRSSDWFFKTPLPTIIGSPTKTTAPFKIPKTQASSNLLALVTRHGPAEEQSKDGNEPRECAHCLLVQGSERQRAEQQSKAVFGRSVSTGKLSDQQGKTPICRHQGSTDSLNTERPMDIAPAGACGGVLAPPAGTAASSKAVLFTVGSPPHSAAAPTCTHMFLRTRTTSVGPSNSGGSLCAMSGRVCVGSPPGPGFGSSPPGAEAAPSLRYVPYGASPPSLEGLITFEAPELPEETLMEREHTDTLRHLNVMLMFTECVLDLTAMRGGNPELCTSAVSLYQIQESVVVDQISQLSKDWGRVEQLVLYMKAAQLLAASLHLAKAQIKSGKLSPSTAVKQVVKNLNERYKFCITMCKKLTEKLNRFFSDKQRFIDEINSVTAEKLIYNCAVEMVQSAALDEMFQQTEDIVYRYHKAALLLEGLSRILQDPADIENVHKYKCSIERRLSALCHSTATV

[5] = molecular target: T1, Mitogen-activated protein kinase kinase kinase 5 (Homo sapiens) (UniProt Q99683); assay: Inhibition of MAP3K5 Lys1 labeling site harbouring IAIKEIPER in human A-375 cells at 0.05 uM by KiNativ Profiling analysis relative to control; assay type: cell-based
T1 sequence (whole entry): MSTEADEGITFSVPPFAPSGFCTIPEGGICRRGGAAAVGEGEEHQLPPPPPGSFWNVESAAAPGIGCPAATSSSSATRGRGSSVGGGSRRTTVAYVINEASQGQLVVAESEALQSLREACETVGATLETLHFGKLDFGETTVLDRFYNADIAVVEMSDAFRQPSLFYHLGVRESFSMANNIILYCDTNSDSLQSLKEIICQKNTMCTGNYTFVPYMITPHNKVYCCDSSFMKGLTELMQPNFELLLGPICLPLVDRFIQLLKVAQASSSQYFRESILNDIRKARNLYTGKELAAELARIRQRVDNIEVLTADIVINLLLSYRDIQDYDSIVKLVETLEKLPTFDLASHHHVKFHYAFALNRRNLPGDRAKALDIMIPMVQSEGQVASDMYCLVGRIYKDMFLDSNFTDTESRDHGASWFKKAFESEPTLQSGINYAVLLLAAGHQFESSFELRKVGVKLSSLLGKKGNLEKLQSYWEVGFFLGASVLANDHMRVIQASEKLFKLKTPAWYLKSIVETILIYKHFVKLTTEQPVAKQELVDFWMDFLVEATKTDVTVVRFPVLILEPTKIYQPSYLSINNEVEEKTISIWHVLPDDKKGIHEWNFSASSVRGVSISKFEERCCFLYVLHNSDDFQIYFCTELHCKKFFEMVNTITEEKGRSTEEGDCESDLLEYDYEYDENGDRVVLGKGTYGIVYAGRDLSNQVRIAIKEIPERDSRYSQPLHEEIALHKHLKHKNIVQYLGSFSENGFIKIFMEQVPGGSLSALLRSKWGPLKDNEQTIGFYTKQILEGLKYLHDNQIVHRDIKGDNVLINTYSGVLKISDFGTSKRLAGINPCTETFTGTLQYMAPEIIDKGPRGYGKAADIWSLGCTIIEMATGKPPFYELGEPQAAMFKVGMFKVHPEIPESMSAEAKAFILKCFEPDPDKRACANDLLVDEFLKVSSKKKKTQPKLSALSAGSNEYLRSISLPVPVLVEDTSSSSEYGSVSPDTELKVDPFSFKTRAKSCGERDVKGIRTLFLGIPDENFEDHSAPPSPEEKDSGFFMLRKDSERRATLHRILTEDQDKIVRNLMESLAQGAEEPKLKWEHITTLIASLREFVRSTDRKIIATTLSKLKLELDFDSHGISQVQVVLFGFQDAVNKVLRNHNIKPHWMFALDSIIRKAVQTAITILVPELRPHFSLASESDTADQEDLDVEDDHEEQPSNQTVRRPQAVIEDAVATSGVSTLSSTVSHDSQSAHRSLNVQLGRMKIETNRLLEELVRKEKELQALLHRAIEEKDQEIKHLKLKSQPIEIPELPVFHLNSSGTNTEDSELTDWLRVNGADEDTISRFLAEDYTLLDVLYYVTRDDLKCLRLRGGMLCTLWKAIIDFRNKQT

[6] = molecular target: T2, Serine/threonine-protein kinase TAO2 (Homo sapiens) (UniProt Q9UL54); assay: Inhibition of TAO2 Lys2 labeling site in human A-375 cells at 0.05 uM by KiNativ Profiling analysis relative to control; assay type: cell-based
T2 sequence (whole entry): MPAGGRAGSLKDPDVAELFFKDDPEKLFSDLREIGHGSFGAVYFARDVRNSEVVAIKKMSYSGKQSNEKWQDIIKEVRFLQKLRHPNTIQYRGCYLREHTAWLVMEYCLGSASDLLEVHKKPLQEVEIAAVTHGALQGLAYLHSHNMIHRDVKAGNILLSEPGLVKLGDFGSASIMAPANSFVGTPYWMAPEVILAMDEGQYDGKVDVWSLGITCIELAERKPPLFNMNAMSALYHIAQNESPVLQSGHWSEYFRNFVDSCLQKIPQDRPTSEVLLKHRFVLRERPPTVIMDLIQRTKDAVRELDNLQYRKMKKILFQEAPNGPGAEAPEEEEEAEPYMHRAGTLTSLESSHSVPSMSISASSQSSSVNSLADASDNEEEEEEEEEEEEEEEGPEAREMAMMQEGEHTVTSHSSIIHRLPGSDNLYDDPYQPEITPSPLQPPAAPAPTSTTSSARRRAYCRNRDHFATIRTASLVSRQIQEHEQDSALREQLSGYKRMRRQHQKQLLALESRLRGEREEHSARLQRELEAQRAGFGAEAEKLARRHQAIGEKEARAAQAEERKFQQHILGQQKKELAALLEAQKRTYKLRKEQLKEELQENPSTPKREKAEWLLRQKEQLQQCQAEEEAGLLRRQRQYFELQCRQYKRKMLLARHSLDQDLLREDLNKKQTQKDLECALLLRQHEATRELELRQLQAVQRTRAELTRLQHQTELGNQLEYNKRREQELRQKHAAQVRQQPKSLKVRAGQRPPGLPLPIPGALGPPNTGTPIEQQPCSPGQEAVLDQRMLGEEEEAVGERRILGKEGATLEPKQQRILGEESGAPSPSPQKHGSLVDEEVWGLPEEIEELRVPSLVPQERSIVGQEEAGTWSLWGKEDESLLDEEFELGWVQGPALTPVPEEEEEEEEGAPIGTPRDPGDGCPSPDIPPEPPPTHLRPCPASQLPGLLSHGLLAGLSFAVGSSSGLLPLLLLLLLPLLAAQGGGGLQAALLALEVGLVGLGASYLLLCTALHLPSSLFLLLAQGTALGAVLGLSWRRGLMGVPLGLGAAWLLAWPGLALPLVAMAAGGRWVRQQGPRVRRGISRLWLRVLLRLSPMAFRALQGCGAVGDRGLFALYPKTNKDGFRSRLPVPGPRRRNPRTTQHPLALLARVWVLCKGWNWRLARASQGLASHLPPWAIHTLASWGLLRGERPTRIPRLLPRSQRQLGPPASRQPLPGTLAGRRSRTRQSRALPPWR

[7] = molecular target: Serine/threonine-protein kinase N2 (Homo sapiens) (UniProt Q16513); assay: Inhibition of PKN2 (unknown origin) at 1 uM by Ambit Kinomescan binding assay relative to control; values are per cent of control
Serine/threonine-protein kinase N2 (Homo sapiens), sequence (Q16513 whole entry, looked up): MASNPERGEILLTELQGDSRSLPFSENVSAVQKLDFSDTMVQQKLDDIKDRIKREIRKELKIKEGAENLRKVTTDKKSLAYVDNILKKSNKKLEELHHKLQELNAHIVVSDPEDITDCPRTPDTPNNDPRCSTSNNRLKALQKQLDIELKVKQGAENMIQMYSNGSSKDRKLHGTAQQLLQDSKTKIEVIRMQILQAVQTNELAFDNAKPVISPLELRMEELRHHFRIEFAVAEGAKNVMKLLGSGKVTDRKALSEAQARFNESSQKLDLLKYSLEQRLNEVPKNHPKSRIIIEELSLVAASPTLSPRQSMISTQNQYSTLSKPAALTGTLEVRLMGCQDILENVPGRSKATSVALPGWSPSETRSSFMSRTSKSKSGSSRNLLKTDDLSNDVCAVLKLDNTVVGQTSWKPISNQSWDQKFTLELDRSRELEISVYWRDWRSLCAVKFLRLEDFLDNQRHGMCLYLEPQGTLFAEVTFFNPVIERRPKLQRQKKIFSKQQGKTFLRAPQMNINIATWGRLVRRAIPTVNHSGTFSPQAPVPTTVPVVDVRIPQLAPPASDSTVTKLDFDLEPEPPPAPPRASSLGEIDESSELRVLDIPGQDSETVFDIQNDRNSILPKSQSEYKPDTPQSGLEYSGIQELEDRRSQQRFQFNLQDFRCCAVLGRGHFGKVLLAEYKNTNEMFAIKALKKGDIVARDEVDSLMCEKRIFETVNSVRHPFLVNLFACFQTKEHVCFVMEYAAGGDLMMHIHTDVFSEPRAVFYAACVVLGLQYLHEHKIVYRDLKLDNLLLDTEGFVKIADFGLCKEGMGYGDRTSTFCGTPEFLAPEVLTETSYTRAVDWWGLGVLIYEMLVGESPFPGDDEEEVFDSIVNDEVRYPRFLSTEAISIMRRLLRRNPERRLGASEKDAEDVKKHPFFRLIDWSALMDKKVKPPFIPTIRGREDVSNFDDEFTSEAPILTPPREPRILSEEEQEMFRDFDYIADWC

CCN1CCN(Cc2ccc(NC(=O)c3ccc(C)c(Oc4ccnc5[nH]ccc45)c3)cc2C(F)(F)F)CC1
inhibition at 5 µM [1]: 61.3% | inhibition [2]: 83.4% | inhibition [3]: inactive | inhibition [4]: inactive | inhibition [5]: 10.8%

CCN1CCN(Cc2ccc(NC(=O)c3ccc(C)c(/C=C/c4cnc5[nH]ccc5c4OC)c3)cc2C(F)(F)F)CC1
inhibition [6]: 21.5% | residual activity [7]: 35%
